The subject of one data set is pyrin inflammasome. The data set can be described thus: IL-18 release in U937-pyrin cells after BAA473 activation. Particulars: BAA473 200 μM 4 h, vs DMSO or XY-07-191 control. The data set is classed as cell-based, human.
The target of a further data set is T1, HDAC6 (Homo sapiens, UniProt Q9UBN7).
T1 sequence (Q9UBN7 1-1215): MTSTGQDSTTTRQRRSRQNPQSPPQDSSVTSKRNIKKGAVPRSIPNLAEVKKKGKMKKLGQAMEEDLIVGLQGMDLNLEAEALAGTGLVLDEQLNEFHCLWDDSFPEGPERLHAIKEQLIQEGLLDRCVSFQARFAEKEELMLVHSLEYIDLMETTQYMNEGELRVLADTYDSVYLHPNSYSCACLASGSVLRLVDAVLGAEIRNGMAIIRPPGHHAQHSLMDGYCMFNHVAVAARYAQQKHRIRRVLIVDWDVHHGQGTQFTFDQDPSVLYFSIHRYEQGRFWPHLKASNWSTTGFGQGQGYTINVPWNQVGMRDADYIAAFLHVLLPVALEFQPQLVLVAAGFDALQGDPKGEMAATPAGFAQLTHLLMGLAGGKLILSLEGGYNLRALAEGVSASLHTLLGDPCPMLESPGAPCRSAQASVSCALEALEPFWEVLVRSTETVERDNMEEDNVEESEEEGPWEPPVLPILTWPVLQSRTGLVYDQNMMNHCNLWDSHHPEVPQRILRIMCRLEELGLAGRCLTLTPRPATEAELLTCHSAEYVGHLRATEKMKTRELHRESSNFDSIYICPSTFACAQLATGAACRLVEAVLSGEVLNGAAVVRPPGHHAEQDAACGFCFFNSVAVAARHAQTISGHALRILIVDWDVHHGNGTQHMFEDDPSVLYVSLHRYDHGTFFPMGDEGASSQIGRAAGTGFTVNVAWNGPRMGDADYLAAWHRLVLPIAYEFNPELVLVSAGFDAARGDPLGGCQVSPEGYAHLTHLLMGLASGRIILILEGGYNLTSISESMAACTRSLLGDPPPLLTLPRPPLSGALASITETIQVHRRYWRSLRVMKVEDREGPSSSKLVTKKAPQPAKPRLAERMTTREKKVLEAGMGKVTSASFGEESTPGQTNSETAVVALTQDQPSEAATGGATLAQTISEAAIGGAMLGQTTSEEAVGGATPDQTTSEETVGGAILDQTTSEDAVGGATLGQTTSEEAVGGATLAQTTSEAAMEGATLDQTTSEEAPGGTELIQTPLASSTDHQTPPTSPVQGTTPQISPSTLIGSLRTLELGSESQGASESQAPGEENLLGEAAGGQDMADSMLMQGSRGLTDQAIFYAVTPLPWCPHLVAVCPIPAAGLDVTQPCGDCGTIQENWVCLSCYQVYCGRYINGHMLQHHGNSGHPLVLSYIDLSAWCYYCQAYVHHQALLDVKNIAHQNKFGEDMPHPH
Kind of data set: HDAC6 degradation in pyrin-expressing U937 cells (immunoblot). Set-up: endogenous in cells. The data set is classed as cell-based. Particulars: 0.1 μM to 10 μM. Background: A western blot detects proteins with antibodies after separation by electrophoresis.

The subject of another data set is HEK293T cells. Kind of data set: CTG cell viability assay. It is filed as cell-based. The following applies: broad concentration range, 70 h. As to the method:
(§1) U937, Jurkat, and HEK293T cells were plated with a density of 10^5 cells/ml, with 50 μl/well in a white 384 well plate (Corning #3570). Two hours after plating, XY-07-035 was dispensed to each well using HPd300e and incubated at 37 °C for 70 h. CellTiter-Glo (CTG) Luminescent Cell Viability Assay (Promega #G7572) was then used to measure cell viability. Aliquoted frozen CTG reagent and cell plates were warmed to room temperature prior to loading. After the plates were cooled to room temperature, the CTG reagent was loaded 15 μl/well with an electronic multichannel pipette. […] The luminescence signal was read over ten cycles for each data point on a PHERAstar FS microplate reader (BMG Labtech). The Relative abundance was calculated as the sum of the averages of duplicate individual 12-point dose-response data points.
(§2) Supplementary file mmc1.pdf: Supporting Figure S1 BMDM cells were primed by LPS (1 μg/ml) for 4 hrs and then challenged with 20 μM nigericin. 50 μl supernatant was collected every 15 min (up to 90 min) and mIL-1β level was determined by HTRF assay. […] DARPin F10 was detected by anti-HA antibody. […] Cells were treated with different concentrations of the degrader, and cell viability determined by CTG assay was normalized to the non-treated group. […] Supporting Figure S4: Cell viability was measured by resazurin assay, and fluorescence intensity was a representative of the viability.

For the next data set, the system named is Jurkat cells. The data set can be described thus: CTG cell viability assay. Particulars: broad concentration range, 70 h. The data set is classed as cell-based. As to the method: as §1, §2

Data on 1 compound can be found in publication PMC10850954, “HDAC6/aggresome processing pathway importance for inflammasome formation is context-dependent” (The Journal of Biological Chemistry, 2024).

Procedure for HDAC6: Cells were treated with the indicated compounds and HDAC6 was detected by immunoblotting with an anti-HDAC6 antibody. Detection of actin was used as a control for protein loading. […] The membrane was blocked with 5% milk-TBS, and then incubated with primary antibodies overnight at 4 °C. The signal was developed with HRP-conjugated secondary antibodies and Amersham ECL Western Blotting Detection Reagent (Cytiva#RPN2106).
Procedure for pyrin inflammasome: Cells were treated with the indicated compounds and HDAC6 was detected by immunoblotting with an anti-HDAC6 antibody. Detection of actin was used as a control for protein loading. […] Pyrin inflammasome was activated by BAA473 (200 μM) for 4 h at 37 °C. […] The graph at the bottom presents IL-18 release based on four independent experiments.
Human IL-1β and IL-18 were determined with Cisbio HTRF Cisbio Human IL1β (#62HIL1BPET) and Human IL18 (#62HIL18PEG) protocols. All the data were from 3 or 4 independent biological replicates.
For pyrin inflammasome, U937-pyrin cells were seeded in 96 well after 0.5 μM PMA treatment for 3 h and then challenged by BAA473 (200 μM) for 4 h at 37 °C.

For the compound `CN(C(=O)CCCNc1cccc2c1C(=O)N(C1CCC(=O)NC1=O)C2=O)c1ccc(NC(=O)CCCCCCC(=O)NO)cc1` (stereo not shown) [XY-07-35], in the data set on pyrin inflammasome, the “change in IL-18 secretion” value is on record as “did not result in any change”. For the same compound, the HDAC6 degradation result on HDAC6 is reported as “efficiently degraded”. Further, the cellular toxicity result with HEK293T cells and in the data set with Jurkat cells was “does not show cellular toxicity” each time.
